The results in this text go back to ChEMBL document CHEMBL1133384, “Synthesis and study of a new adenine-acridine tandem, inhibitor of exonuclease III” (Bioorg Med Chem Lett, 2000).

The subject of one test is Nucleic Acid. In words: Compound was evaluated for its binding affinity constant for native calf thymus DNA in competition experiment with ethium bromide. The test is classed as nucleic-acid assay, Bos taurus.
The next test relates to L1210. The experiment in a line: The cytotoxicity against murine leukemia L1210. The test is classed as functional, cell-based. As to conditions: Mus musculus.

In the case of `COc1ccc2nc3cc(Cl)ccc3c(NCCCN(CCC(=O)NCCn3cnc4c(N)ncnc43)C(=N)N)c2c1.Cl`, in the test on Nucleic Acid, the Ka was determined as 200000 M⁻¹. Also, in the test on L1210, the IC50 was more than 100 µM.

What is called IC50 is the concentration that gives 50% inhibition. A lower IC50 goes with greater potency.
